The supplement of paper PMC5579334

Legend:
HS-Sch-2 = assay: relative IC50 (inflection point of fitted dose-response curve, CellTiter-Glo viability, 72 h; top asymptote may be below 50% inhibition); higher = less potent
How it was run: (§1)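 For this screen, 384-well plates were preprinted with each compound at five concentrations in 10-fold steps and seeded with MPNST cell lines or primary human Schwann cells at 750–1000 cells per well. Incubation lasted 72 h at 37 °C, 5% CO2, and CellTiter-Glo ATP luminescence, scaled between vehicle and positive-control wells and averaged over duplicates where available, served as viability. Logistic fits with four parameters were applied. Relative IC50 (censored at the top concentration) and drug sensitivity score derive from these fits, and percent inhibition is at the top concentration.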

HSC2 [1] = assay: as above
How it was run: as §1

S462 = assay: as above
How it was run: as §1

YST-1 = assay: as above
How it was run: as §1

S1507-2 [2] = assay: as above
How it was run: as §1

HSC1 [3] = assay: as above
How it was run: as §1

HS-PSS [4] = assay: relative IC50 (inflection point of fitted dose-response curve, CellTox-Green cytotoxicity, 72 h; top asymptote may be below 50%); higher = less potent
How it was run: (§2)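 MPNST cell lines and primary human Schwann cells were grown for 72 h at 37 °C in 384-well plates containing five 10-fold compound dilutions. CellTox-Green, added before seeding at a final 1:1000 dilution, gave fluorescence from DNA released by disrupted cells, and signals were scaled to vehicle and positive-control wells. Curves were fitted with a four-parameter logistic model. Drug sensitivity score and relative IC50 come from these fits, with IC50 censored at the top concentration.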

HSC2 [5] = assay: as above
How it was run: as §2

STS26T [6] = assay: as above
How it was run: as §2

S1507-2 [7] = assay: as above
How it was run: as §2

HSC1 [8] = assay: as above
How it was run: as §2

ST8814 [9] = assay: as above
How it was run: as §2

STS26T [10] = assay: relative IC50 (inflection point of fitted dose-response curve, CellTiter-Glo viability, 72 h; top asymptote may be below 50% inhibition); higher = less potent
How it was run: as §1

HS-PSS [11] = assay: as above
How it was run: as §1

ST8814 [12] = assay: as above
How it was run: as §1

| SMILES | relative IC50 (HS-Sch-2) [nM] | relative IC50 (HSC2 [1]) [nM] | relative IC50 (S462) [nM] | relative IC50 (YST-1) [nM] | relative IC50 (S1507-2 [2]) [nM] | relative IC50 (HSC1 [3]) [nM] | relative IC50 (HS-PSS [4]) [nM] | relative IC50 (HSC2 [5]) [nM] | relative IC50 (STS26T [6]) [nM] | relative IC50 (S1507-2 [7]) [nM] | relative IC50 (HSC1 [8]) [nM] | relative IC50 (ST8814 [9]) [nM] | relative IC50 (STS26T [10]) [nM] | relative IC50 (HS-PSS [11]) [nM] | relative IC50 (ST8814 [12]) [nM] |
| --- | --- | --- | --- | --- | --- | --- | --- | --- | --- | --- | --- | --- | --- | --- | --- |
| Cc1c(Cn2c(C)nc3c(C(=O)O)cc(N4CCOCC4)cc32)cccc1C(F)(F)F | > 10000 | > 10000 | > 10000 | > 10000 | 931 | > 10000 | > 10000 | > 10000 | > 10000 | > 10000 | > 10000 | > 10000 | – | – | – |
| Nc1nccc(-c2c(-c3ccc(F)cc3)ncn2C2CCCCC2)n1 | 3780 | > 10000 | > 10000 | 800 | > 10000 | > 10000 | – | > 10000 | – | > 10000 | > 10000 | > 10000 | > 10000 | – | – |
| O=C(Nc1ccc2[nH]nc(-c3ccncc3)c2c1)[C@@H]1CCN(CC(=O)N2CCN(c3ccc(-c4ncccn4)cc3)CC2)C1 | 773 | 159 | 137 | 2270 | 568 | 263 | > 10000 | – | – | 1950 | > 10000 | 675 | 822 | 677 | 234 |
| COc1cc2c(cc1O)CC[C@@H]1[C@@H]2CC[C@]2(C)[C@@H](O)CC[C@@H]12 [2-methoxyestradiol] | 841 | 1230 | 747 | 1650 | 1860 | 1170 | > 10000 | 1500 | 1020 | 1660 | – | 3130 | 922 | 3060 | 2580 |
| COc1cc(O)c2c(c1)/C=C/C[C@H](O)[C@H](O)C(=O)/C=C\C[C@H](C)OC2=O [(5Z)-7-Oxozeaenol] | 2790 | 1320 | 1660 | 2020 | 2450 | 1690 | > 10000 | 3900 | 3070 | 3520 | – | – | 1360 | 3820 | 1330 |
| Cc1cc2c(C(C)C)c(O)c(O)c(C=O)c2c(O)c1-c1c(C)cc2c(C(C)C)c(O)c(O)c(C=O)c2c1O [AT 101] | 5350 | 1740 | 3790 | 5300 | 16300 | 3720 | 30300 | > 100000 | > 100000 | > 100000 | 10700 | – | 8980 | 15300 | 7150 |
| CC[C@H](CC#N)OC(=O)N[C@@H](C)c1cccc(NC(=O)Nc2ccc(-c3cnco3)c(OC)c2)c1 [AVN944] | 640 | 93.4 | 320 | 317 | 500 | 108 | > 10000 | > 10000 | – | > 10000 | > 10000 | 886 | 398 | 309 | 614 |
| COc1cc(OC2CCN(C)CC2)ccc1Nc1ncc2c(n1)n(C1CCCC1)c(=O)n2C [AZ 3146] | 1670 | 3340 | 964 | 1480 | 2690 | 3380 | 3140 | – | 1950 | 3510 | > 10000 | 2960 | 1250 | 1850 | 2580 |
| CCN(CCO)CCCOc1ccc2c(Nc3cc(CC(=O)Nc4cccc(F)c4)[nH]n3)ncnc2c1 [AZD1152-HQPA] | > 1000 | 35.2 | 5.43 | 5.7 | 107 | 22.3 | > 1000 | – | 161 | > 1000 | > 1000 | 206 | 85.6 | – | 152 |
| COc1ccc(-c2ccc3c(N4CCOC[C@@H]4C)nc(N4CCOC[C@@H]4C)nc3n2)cc1CO [AZD8055] | 83.3 | 28 | 24.8 | 20.5 | 51.1 | 29.9 | – | > 10000 | > 10000 | > 10000 | > 10000 | – | 69.5 | 91.7 | 138 |
| CCCCCOC(=O)Nc1nc(=O)n([C@@H]2O[C@H](C)[C@@H](O)[C@H]2O)cc1F [Capecitabine] | > 10000 | > 10000 | > 10000 | > 10000 | > 10000 | > 10000 | > 10000 | > 10000 | > 10000 | > 10000 | > 10000 | > 10000 | – | > 10000 | > 10000 |
| COc1cccc2c1C(=O)c1c(O)c3c(c(O)c1C2=O)C[C@@](O)(C(C)=O)C[C@@H]3O[C@H]1C[C@H](N)[C@H](O)[C@H](C)O1 [Daunorubicin] | 117 | 72.5 | 49.3 | 27 | 146 | 120 | > 1000 | 344 | – | > 1000 | 366 | – | 71.6 | 122 | 101 |
| Nc1ccccc1NC(=O)c1ccc(CNC(=O)OCc2cccnc2)cc1 [Entinostat] | 3410 | 2560 | 1500 | 1240 | 2680 | 2340 | – | > 10000 | – | 3240 | > 10000 | 3640 | 2740 | 3730 | 3700 |
| C[C@H]1C=C2C(=O)O[C@H]3CC[C@@H](C1)[C@@]23O [Galiellalactone] | 4620 | 9860 | 8040 | 9960 | 9350 | 5260 | > 25000 | > 50000 | 14600 | 15700 | – | > 50000 | 7720 | 6450 | 10100 |
| CS(=O)(=O)CCNCc1ccc(-c2ccc3ncnc(Nc4ccc(OCc5cccc(F)c5)c(Cl)c4)c3c2)o1 [Lapatinib] | > 1000 | > 1000 | > 1000 | – | > 1000 | > 1000 | > 1000 | > 1000 | > 1000 | > 1000 | > 1000 | > 1000 | – | > 1000 | > 1000 |
| Cc1ccc(NC(=O)c2ccc(CN3CCN(C)CC3)cc2)cc1Nc1nc(-c2cccnc2)cs1 [Masitinib] | 3270 | 2600 | 3300 | 2330 | 2060 | 3400 | 3850 | – | 3340 | 3510 | 3820 | 3220 | 3370 | 1830 | 3230 |
| Cc1cn(-c2cc(NC(=O)c3ccc(C)c(Nc4nccc(-c5cccnc5)n4)c3)cc(C(F)(F)F)c2)cn1 [Nilotinib] | – | > 10000 | > 10000 | – | > 10000 | > 10000 | > 10000 | – | > 10000 | > 10000 | > 10000 | > 10000 | > 10000 | – | > 10000 |
| C=CCc1cccc(/C=N/NC(=O)CN2CCN(Cc3ccccc3)CC2)c1O [PAC-1] | 1130 | 1370 | 3490 | 2430 | 3660 | 1890 | 2020 | > 10000 | > 10000 | > 10000 | > 10000 | – | 2530 | 2320 | 2920 |
| O=C(NC[C@H](O)CO)c1ccncc1Nc1ccc(I)cc1F [Pimasertib] | 962 | 846 | 507 | 3800 | 476 | 730 | > 10000 | > 10000 | – | 2160 | – | 2060 | 241 | 2390 | 971 |
| COc1cc(F)c(F)c(Nc2ccc(I)cc2F)c1NS(=O)(=O)C1(C[C@H](O)CO)CC1 [Refametinib] | 1620 | 443 | 382 | – | 362 | 849 | 3270 | – | – | 1860 | > 10000 | 1600 | 306 | 1800 | 451 |
| CN(C)C[C@@H]1CCn2cc(c3ccccc32)C2=C(C(=O)NC2=O)c2cn(c3ccccc23)CCO1 [Ruboxistaurin] | 3420 | 1970 | 2080 | 1360 | 2170 | 3290 | 3670 | 1880 | 2420 | 2960 | 2060 | – | 2980 | 2890 | 1200 |
| CN1CCN(CCOc2cc(OC3CCOCC3)c3c(Nc4c(Cl)ccc5c4OCO5)ncnc3c2)CC1 [Saracatinib] | 2810 | 1530 | 818 | – | 1530 | 452 | – | 8110 | – | 99.5 | > 10000 | 1550 | 1110 | 1570 | 1320 |
| Cn1cncc1[C@@](N)(c1ccc(Cl)cc1)c1ccc2c(c1)c(-c1cccc(Cl)c1)cc(=O)n2C [Tipifarnib] | 1510 | 585 | 510 | 175 | 97.5 | 1350 | > 10000 | > 10000 | 342 | > 10000 | – | – | 351 | 683 | 366 |
| CC(=O)Nc1cccc(-n2c(=O)n(C3CC3)c(=O)c3c(Nc4ccc(I)cc4F)n(C)c(=O)c(C)c32)c1 [Trametinib] | 48.6 | 18.5 | 9.9 | > 250 | 15.2 | 10.6 | > 250 | – | – | 45.8 | > 250 | 46.3 | 7.59 | 28.1 | 16 |
| Oc1ncc(N(CCCl)CCCl)c(O)n1 [Uracil mustard] | – | > 10000 | > 10000 | – | > 10000 | > 10000 | – | > 10000 | > 10000 | > 10000 | > 10000 | > 10000 | > 10000 | – | – |
| CS(=O)(=O)c1ccc(C(=O)Nc2ccc(Cl)c(-c3ccccn3)c2)c(Cl)c1 [Vismodegib] | – | > 10000 | > 10000 | – | > 10000 | > 10000 | > 10000 | > 10000 | > 10000 | > 10000 | – | > 10000 | > 10000 | – | > 10000 |
